Experimental data as given in PMC7901646, “Pyrrolo[2′,3′:3,4]cyclohepta[1,2-d][1,2]oxazoles, a New Class of Antimitotic Agents Active against Multiple Malignant Cell Types” (Journal of Medicinal Chemistry, 2020).

How the values were obtained:
VL51 ibrutinib-resistant = test: MTT cell proliferation, lymphoma; type: cell-based; settings: Homo sapiens, 72 h, of untreated cells, read-out: Proliferating cells (%)
Experimental: (§1) All compounds were further tested at the concentration of 1 μM on four cell lines derived from distinct lymphoma histotypes, plus two with secondary resistance to the PI3Kδ inhibitor idelalisib[51] or to the BTK inhibitor ibrutinib.[52] […] For comparison, the same experiments were conducted using compound 3, but the response to it was minimal, and thus it was not considered further.
(§2) Established human cell lines derived from germinal center B-cell (GCB) (SU-DHL-10), activated B-cell (ABC) (HBL1) diffuse large B-cell lymphoma (DLBCL), mantle cell lymphoma (MCL) (MINO), splenic marginal zone lymphoma (SMZL) (parental VL51, VL51 idelalisib resistant clone, VL51 ibrutinib resistant clone) were cultured in culture RPMI-1640 media supplemented with fetal bovine serum (10%), penicillin–streptomycin–neomycin (∼5,000 units of penicillin, 5 mg of streptomycinm and 10 mg of neomycin/mL, Sigma), and L-glutamine (1%). Vincristine sulfate was purchased from Sigma-Aldrich. Cell line identities were confirmed by CellCheck test (IDEXX, BioResearch, Ludwigsburg, Germany). All compounds were dissolved in dimethyl sulfoxide to obtain a stock concentration of 10 mM.
(§3) The antiproliferative activity of all compounds was assessed by using the 3-(4.5-dimethylthiazolyl-2)-2,5-diphenyltetrazolium bromide (MTT) test. Cells were seeded in 96-well plates (nontissue culture treated) at a density of 1 × 10^5 cells/mL and treated with a single concentration of 1 μM for 72 h. […] In this case, cells were treated in triplicate with serially diluted compounds in the appropriate tissue culture medium at a range of 40–10 000 nM. Cells were incubated for 72 h at 37 °C, 5% CO2. Wells containing medium only were included on each plate and served as blanks for absorbance readings. MTT (Sigma, Buchs, Switzerland) was prepared as a 5 mg/mL stock solution in phosphate buffered saline (PBS) and filter-sterilized. MTT solution (22 μL) was added to each well, and tissue culture plates were incubated at 37 °C for 4 h. Cells were then lysed with 25% sodium dodecyl sulfate lysis buffer, and absorbance was read at 570 nm using a Beckman Coulter-AD340 plate reader.

SU-DHL-10 (GCB DLBCL) = test: MTT cell proliferation, lymphoma; type: cell-based; settings: Homo sapiens, SU-DHL10; 1 μM, 72 h, of untreated cells; read-out: Proliferating cells (%)
Experimental: as §1, §2, §3

[1] = tested on: VL51 idelalisib-resistant; test: MTT cell proliferation, lymphoma; type: cell-based; settings: Homo sapiens, 72 h, of untreated cells, read-out: Proliferating cells (%)
Experimental: as §1, §2, §3

HBL1 (ABC DLBCL) = test: MTT cell proliferation, lymphoma; type: cell-based; settings: Homo sapiens, 1 μM, 72 h, of untreated cells, read-out: Proliferating cells (%)
Experimental: as §1, §2, §3

MINO (MCL) = test: MTT cell proliferation, lymphoma; type: cell-based; settings: Homo sapiens, 1 μM, 72 h, of untreated cells, read-out: Proliferating cells (%)
Experimental: as §1, §2, §3

VL51 (MZL) = test: MTT cell proliferation, lymphoma; type: cell-based; settings: Homo sapiens, 1 μM, 72 h, of untreated cells, read-out: Proliferating cells (%)
Experimental: as §1, §2, §3

six lymphoma cell lines = test: MTT cell proliferation, all lymphoma cell lines; type: cell-based, human; settings: 1 μM, 72 h, of the untreated cells
Experimental: as §1
as §2, with “Cell line identities were confirmed by CellCheck test (IDEXX, BioResearch, Ludwigsburg, Germany). All compounds were dissolved in dimethyl sulfoxide to obtain a stock concentration of 10 mM.” left out
The antiproliferative activity of all compounds was assessed by using the 3-(4.5-dimethylthiazolyl-2)-2,5-diphenyltetrazolium bromide (MTT) test. […] Wells containing medium only were included on each plate and served as blanks for absorbance readings. […] Cells were then lysed with 25% sodium dodecyl sulfate lysis buffer, and absorbance was read at 570 nm using a Beckman Coulter-AD340 plate reader.

[2] = tested on: NCI-60 panel of human cancer cell lines; design: method as in earlier work; settings: full NCI panel, ref 42−45, cited from earlier work
bovine brain tubulin = bovine brain tubulin (Bos taurus, UniProt P81947+Q6B856); test: Inhibition of tubulin assembly (turbidimetry); type: biochemical; settings: 9 μM (0.9 mg/mL) tubulin, 20 min at 30 °C; read-out: inhibition of tubulin assembly IC50 ± SD
bovine brain tubulin, sequence (Q6B856 whole entry): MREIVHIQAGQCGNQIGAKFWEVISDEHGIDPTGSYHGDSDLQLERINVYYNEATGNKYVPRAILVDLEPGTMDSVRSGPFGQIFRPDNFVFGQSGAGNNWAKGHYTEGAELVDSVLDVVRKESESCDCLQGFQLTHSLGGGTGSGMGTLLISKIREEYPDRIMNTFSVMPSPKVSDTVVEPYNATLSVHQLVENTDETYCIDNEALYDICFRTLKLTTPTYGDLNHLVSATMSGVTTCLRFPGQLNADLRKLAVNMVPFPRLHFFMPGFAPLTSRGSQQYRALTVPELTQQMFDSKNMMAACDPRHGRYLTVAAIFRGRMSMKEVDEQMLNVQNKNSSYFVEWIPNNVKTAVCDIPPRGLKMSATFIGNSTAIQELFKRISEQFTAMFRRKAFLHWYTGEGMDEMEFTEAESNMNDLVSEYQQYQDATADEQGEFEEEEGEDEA
bovine brain tubulin, sequence (P81947 whole entry): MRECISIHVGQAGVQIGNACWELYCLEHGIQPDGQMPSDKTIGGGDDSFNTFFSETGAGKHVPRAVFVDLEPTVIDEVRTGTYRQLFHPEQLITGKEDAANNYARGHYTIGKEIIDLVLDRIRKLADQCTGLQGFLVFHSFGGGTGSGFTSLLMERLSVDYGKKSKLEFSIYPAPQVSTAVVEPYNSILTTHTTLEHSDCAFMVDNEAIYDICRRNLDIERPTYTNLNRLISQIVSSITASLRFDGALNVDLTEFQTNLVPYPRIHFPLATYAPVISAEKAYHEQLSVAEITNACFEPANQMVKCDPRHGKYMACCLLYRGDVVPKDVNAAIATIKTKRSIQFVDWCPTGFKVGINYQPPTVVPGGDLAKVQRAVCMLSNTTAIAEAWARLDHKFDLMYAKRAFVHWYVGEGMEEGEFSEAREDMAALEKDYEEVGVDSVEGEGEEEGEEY

tubulin colchicine site = tubulin colchicine site (Bos taurus, UniProt P81947+Q6B856); test: Inhibition of [3H]colchicine binding to tubulin; settings: read-out: inhibition of colchicine binding % inhibition ± SD
tubulin colchicine site, sequence (Q6B856 whole entry): as the sequence (Q6B856 whole entry) above
tubulin colchicine site, sequence (P81947 whole entry): as the sequence (P81947 whole entry) above

tumor growth = tested on: tumor growth; design: method as in PMID 17915194, PMID 21215627; settings: in vivo models, dose of 50–100 mg/kg; cited from earlier work
[3] = tested on: human peripheral blood lymphocytes not stimulated with PHA; test: Cytotoxicity in resting PBLs (MTT); type: cell-based; settings: Lymphocyte, 72 h, mean ± SEM, three experiments, read-out: GI50 PBLresting
Experimental: (§4) PBLs were obtained from human peripheral blood (leucocyte rich plasma-buffy coats) from healthy volunteers using the Lymphoprep (Fresenius KABI Norge AS) gradient density centrifugation.
(§5) After extensive washing, cells were resuspended (1.0 × 10^6 cells/mL) in RPMI-1640 with 10% fetal bovine serum and incubated overnight. For cytotoxicity evaluations in proliferating PBL cultures, nonadherent cells were resuspended at 5 × 10^5 cells/mL in growth medium, containing 2.5 μg/mL PHA (Irvine Scientific). Different concentrations of the test compounds were added, and viability was determined 72 h later by the MTT test. For cytotoxicity evaluations in resting PBL cultures, nonadherent cells were resuspended (5 × 10^5 cells/mL) and treated for 72 h with the test compounds.

[4] = tested on: human peripheral blood lymphocytes stimulated with PHA; test: Cytotoxicity in PHA-stimulated PBLs (MTT); type: cell-based; settings: Lymphocyte, 72 h, mean ± SEM, three experiments, read-out: GI50 PBLPHA
Experimental: as §4, §5

CCOC(=O)c1cc2c(n1Cc1cc(OC)cc(OC)c1)-c1oncc1CC2 [Compound 3, ethyl 8-(3,5-dimethoxybenzyl)-5,8-dihydro-4H-[1,2]oxazolo[4,5-g]indole-7-carboxylate, reference compound] gave an activity at 1 µM (VL51 ibrutinib-resistant) of 123%, an activity at 1 µM (SU-DHL-10 (GCB DLBCL)) of 80% and an activity at 1 µM [1] of 107%. For the same molecule, the activity at 1 µM (HBL1 (ABC DLBCL)) was 95.6%, the activity at 1 µM (MINO (MCL)) was 94.5% and the activity at 1 µM (VL51 (MZL)) was 93.5%. The “percentage of proliferating cells, all tested cell lines” value (six lymphoma cell lines) was “minimal”, the “MG_MID (mean graph midpoint)” value [2] was 0.25 µM and the GI50 ([2]; read-out: GI50 range) was 0.03 to 31.1 µM. For the same molecule, the IC50 (bovine brain tubulin) was 9.2 ± 0.4 µM.

COc1cc(Cn2ccc3c2-c2oncc2CCC3)cc(OC)c1 [Compound 58, 9-(3,5-Dimethoxybenzyl)-4,5,6,9-tetrahydropyrrolo[2′,3′:3,4]cyclohepta[1,2-d][1,2]oxazole] gave an activity at 1 µM (VL51 ibrutinib-resistant) of 73%, an activity at 1 µM (SU-DHL-10 (GCB DLBCL)) of 72.4% and an activity at 1 µM [1] of 78.4%. The activity at 1 µM (HBL1 (ABC DLBCL)) was 114%, the activity at 1 µM (MINO (MCL)) was 101% and the activity at 1 µM (VL51 (MZL)) was 84%. For the same molecule, the inhibition at 5 µM (tubulin colchicine site) was 25 ± 3% and the IC50 (bovine brain tubulin) was 5.7 ± 1 µM.

For CCc1cc(-c2oncc2-c2ccc(OC)cc2)c(O)cc1OC [KRIBB3], the “reduction of tumor growth” value (tumor growth) is listed as 50–70%.

CC[C@]1(O)C[C@H]2CN(CCc3c([nH]c4ccccc34)[C@@](C(=O)OC)(c3cc4c(cc3OC)N(C=O)[C@H]3[C@@](O)(C(=O)OC)[C@H](OC(C)=O)[C@]5(CC)C=CCN6CC[C@]43[C@@H]65)C2)C1 [vincristine, reference compound] showed a GI50 [3] of 7.5 ± 3.1 µM and a GI50 [4] of 1.2 ± 0.6 µM.
